From ChEMBL document CHEMBL4507276 (2021) come the findings set out here.

The inhibition is the percentage by which the read-out fell short of the control.

The target in test [1] is Cyclin-dependent kinase 7 (Homo sapiens) (UniProt P50613). To be noted: Compound concentration 1000.0 nM.
Test [2] deals with T1, 5-hydroxytryptamine receptor 2C (Homo sapiens) (UniProt P28335).
T1 sequence (whole entry): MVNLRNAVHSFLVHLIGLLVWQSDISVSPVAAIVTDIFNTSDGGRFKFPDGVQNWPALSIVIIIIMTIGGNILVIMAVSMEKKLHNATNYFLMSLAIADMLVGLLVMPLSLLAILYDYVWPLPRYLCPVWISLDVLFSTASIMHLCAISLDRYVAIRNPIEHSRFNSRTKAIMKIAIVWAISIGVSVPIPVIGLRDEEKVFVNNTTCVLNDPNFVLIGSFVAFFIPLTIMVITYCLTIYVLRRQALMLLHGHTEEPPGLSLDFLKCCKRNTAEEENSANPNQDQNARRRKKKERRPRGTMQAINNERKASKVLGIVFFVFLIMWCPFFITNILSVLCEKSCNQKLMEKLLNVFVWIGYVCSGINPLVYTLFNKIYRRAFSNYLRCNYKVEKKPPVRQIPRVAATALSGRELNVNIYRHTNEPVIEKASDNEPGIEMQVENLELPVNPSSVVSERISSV
To be noted: Compound concentration 10.0 uM.

The target in test [3] is Cyclin-dependent kinase 2 homolog (Plasmodium falciparum (isolate 3D7)) (UniProt P61075). To be noted: Compound concentration 1000.0 nM.
Cyclin-dependent kinase 2 homolog (Plasmodium falciparum (isolate 3D7)), sequence (P61075 whole entry): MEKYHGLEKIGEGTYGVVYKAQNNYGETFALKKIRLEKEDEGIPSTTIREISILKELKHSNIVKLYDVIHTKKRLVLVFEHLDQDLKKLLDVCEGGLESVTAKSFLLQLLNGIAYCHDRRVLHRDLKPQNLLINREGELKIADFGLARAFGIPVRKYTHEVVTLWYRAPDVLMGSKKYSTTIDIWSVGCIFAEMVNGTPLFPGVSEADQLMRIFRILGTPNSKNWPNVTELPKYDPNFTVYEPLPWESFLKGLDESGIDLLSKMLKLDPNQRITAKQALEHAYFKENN
For test [4], the target named is Sodium-dependent serotonin transporter (Homo sapiens) (UniProt P31645). To be noted: Compound concentration 10.0 uM.
Sodium-dependent serotonin transporter (Homo sapiens), sequence (P31645 whole entry, looked up): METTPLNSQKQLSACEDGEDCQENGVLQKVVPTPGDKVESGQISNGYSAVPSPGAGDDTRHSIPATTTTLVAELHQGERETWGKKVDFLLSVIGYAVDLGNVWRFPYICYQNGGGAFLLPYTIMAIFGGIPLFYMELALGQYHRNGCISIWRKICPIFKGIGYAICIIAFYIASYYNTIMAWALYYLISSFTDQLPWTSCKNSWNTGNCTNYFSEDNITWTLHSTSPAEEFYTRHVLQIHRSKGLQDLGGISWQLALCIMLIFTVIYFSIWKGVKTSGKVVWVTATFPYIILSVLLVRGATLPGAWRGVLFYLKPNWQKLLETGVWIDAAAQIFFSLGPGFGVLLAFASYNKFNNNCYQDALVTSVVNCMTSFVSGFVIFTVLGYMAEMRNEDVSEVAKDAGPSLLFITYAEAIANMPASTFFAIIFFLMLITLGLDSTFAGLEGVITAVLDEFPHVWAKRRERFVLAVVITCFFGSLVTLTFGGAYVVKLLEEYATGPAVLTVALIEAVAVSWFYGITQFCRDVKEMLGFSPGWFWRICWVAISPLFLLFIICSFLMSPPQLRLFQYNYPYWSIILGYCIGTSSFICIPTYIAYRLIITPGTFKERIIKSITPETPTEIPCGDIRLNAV
In test [5] the target is Dual specificity protein kinase CLK1 (Homo sapiens) (UniProt P49759). Particulars: Compound concentration 1000.0 nM.
Test [6] addresses High affinity nerve growth factor receptor (Homo sapiens) (UniProt P04629). To be noted: Compound concentration 1000.0 nM.
Test [7] deals with Dual serine/threonine and tyrosine protein kinase (Homo sapiens) (UniProt Q6XUX3). To be noted: Compound concentration 1000.0 nM.
Dual serine/threonine and tyrosine protein kinase (Homo sapiens), sequence (Q6XUX3 whole entry): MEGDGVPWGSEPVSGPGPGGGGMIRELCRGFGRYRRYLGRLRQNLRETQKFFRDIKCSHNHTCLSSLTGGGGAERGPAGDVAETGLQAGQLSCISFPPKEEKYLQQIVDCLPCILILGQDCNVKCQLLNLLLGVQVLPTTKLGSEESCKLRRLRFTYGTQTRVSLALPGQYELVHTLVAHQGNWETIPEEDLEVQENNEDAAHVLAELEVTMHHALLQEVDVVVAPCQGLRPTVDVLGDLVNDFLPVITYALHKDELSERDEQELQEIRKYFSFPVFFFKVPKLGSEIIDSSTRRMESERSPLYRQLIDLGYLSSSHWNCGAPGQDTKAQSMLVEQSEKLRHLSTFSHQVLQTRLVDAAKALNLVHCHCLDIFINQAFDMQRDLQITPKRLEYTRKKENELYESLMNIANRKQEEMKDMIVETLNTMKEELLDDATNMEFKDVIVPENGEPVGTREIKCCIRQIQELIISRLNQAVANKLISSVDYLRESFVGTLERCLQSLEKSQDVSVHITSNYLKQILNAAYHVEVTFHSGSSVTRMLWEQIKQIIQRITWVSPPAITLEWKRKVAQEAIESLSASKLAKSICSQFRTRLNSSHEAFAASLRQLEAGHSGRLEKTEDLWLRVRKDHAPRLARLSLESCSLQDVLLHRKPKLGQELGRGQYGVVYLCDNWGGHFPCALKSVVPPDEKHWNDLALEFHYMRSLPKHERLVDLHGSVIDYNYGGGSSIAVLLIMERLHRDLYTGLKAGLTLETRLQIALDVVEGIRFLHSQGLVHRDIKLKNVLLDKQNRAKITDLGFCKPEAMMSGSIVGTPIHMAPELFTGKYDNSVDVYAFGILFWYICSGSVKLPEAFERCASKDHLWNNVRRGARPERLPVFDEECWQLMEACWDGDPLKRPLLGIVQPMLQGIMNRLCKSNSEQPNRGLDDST
Test [8] has as its target Serine/threonine-protein kinase MRCK alpha (Homo sapiens) (UniProt Q5VT25). Particulars: Compound concentration 1000.0 nM.
The target of test [9] is Serine/threonine-protein kinase Nek6 (Homo sapiens) (UniProt Q9HC98). Particulars: Compound concentration 1000.0 nM.
Test [10] addresses Ephrin type-B receptor 6 (Homo sapiens) (UniProt O15197). Particulars: Compound concentration 1000.0 nM.
Test [11] has as its target T2, Mitogen-activated protein kinase kinase kinase 7 (Homo sapiens) (UniProt O43318).
T2 sequence (whole entry): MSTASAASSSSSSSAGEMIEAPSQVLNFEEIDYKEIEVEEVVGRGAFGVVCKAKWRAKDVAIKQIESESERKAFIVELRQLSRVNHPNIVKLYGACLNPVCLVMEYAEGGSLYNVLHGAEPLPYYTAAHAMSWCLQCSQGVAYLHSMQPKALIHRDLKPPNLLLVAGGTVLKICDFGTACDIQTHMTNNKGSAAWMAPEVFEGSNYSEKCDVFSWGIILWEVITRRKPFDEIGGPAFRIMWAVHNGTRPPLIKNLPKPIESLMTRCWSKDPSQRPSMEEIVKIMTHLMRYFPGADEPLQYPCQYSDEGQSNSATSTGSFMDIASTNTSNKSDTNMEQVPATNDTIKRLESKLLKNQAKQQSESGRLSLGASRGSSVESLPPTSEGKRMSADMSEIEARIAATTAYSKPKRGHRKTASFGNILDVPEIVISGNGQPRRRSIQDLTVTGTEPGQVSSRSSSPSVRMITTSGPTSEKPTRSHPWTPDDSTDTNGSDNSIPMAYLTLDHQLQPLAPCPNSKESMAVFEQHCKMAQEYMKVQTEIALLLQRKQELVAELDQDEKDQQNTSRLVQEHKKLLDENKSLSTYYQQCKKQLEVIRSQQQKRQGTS
To be noted: Compound concentration 1000.0 nM.

Test [12] has as its target Tyrosine-protein kinase JAK1 (Homo sapiens) (UniProt P23458). Particulars: Compound concentration 1000.0 nM.
For test [13], the target named is T3, Dual specificity mitogen-activated protein kinase kinase 3 (Homo sapiens) (UniProt P46734).
T3 sequence (whole entry): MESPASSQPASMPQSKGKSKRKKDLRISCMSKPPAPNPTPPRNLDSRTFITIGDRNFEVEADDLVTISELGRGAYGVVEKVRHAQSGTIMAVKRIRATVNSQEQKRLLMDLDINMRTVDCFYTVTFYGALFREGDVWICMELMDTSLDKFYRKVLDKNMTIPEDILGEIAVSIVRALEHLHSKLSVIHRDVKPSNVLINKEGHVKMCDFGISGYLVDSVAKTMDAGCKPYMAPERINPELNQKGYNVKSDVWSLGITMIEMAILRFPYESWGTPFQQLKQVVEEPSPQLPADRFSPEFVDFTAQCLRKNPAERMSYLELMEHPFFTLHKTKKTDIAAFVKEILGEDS
Particulars: Compound concentration 1000.0 nM.

Test [14] concerns the target T4, Beta-adrenergic receptor kinase 1 (Homo sapiens) (UniProt P25098).
T4 sequence (whole entry): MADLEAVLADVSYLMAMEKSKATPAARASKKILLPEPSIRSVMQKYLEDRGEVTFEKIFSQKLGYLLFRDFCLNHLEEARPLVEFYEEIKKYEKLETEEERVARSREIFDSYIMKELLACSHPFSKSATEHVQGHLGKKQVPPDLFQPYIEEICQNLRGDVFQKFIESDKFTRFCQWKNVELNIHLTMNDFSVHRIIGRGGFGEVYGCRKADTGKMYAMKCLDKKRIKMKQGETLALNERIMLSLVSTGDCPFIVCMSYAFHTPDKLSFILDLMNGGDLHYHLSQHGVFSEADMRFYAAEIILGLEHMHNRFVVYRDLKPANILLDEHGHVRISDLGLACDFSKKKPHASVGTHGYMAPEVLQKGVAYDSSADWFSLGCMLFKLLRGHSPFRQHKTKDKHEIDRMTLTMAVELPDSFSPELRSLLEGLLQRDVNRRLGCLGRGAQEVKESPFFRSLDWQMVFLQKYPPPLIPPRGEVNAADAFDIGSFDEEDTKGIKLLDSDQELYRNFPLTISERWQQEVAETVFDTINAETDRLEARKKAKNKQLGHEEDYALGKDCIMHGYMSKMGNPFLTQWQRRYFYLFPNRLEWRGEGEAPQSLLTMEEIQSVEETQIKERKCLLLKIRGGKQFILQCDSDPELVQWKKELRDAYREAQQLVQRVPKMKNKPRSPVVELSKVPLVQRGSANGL
Particulars: Compound concentration 1000.0 nM.

Test [15] concerns the target Cyclin-dependent kinase 8 (Homo sapiens) (UniProt P49336). Particulars: Compound concentration 1000.0 nM.
The target of test [16] is Serine/threonine-protein kinase PLK3 (Homo sapiens) (UniProt Q9H4B4). Particulars: Compound concentration 1000.0 nM.
Serine/threonine-protein kinase PLK3 (Homo sapiens), sequence (Q9H4B4 whole entry, looked up): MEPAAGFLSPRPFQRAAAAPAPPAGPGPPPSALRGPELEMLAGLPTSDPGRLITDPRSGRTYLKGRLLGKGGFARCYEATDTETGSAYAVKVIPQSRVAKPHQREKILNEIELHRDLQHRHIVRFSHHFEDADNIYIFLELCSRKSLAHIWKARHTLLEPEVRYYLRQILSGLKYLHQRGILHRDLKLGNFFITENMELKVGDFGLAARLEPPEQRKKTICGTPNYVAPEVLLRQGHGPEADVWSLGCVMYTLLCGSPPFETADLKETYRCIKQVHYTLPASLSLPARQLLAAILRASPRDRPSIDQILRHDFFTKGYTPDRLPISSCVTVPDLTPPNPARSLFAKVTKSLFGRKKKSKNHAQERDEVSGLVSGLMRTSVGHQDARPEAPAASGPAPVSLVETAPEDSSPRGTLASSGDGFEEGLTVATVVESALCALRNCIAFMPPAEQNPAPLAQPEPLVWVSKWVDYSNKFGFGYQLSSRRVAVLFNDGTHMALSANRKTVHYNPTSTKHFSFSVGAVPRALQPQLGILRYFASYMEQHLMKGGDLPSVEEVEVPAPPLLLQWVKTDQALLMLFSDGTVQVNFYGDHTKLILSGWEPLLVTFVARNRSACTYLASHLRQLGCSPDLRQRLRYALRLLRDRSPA
Test [17] concerns the target Cyclin-dependent kinase 2 (Homo sapiens) (UniProt P24941). Particulars: Compound concentration 1000.0 nM.

Structures are written as SMILES.

Serine/threonine-protein kinase MRCK alpha (Homo sapiens), sequence (Q5VT25 whole entry): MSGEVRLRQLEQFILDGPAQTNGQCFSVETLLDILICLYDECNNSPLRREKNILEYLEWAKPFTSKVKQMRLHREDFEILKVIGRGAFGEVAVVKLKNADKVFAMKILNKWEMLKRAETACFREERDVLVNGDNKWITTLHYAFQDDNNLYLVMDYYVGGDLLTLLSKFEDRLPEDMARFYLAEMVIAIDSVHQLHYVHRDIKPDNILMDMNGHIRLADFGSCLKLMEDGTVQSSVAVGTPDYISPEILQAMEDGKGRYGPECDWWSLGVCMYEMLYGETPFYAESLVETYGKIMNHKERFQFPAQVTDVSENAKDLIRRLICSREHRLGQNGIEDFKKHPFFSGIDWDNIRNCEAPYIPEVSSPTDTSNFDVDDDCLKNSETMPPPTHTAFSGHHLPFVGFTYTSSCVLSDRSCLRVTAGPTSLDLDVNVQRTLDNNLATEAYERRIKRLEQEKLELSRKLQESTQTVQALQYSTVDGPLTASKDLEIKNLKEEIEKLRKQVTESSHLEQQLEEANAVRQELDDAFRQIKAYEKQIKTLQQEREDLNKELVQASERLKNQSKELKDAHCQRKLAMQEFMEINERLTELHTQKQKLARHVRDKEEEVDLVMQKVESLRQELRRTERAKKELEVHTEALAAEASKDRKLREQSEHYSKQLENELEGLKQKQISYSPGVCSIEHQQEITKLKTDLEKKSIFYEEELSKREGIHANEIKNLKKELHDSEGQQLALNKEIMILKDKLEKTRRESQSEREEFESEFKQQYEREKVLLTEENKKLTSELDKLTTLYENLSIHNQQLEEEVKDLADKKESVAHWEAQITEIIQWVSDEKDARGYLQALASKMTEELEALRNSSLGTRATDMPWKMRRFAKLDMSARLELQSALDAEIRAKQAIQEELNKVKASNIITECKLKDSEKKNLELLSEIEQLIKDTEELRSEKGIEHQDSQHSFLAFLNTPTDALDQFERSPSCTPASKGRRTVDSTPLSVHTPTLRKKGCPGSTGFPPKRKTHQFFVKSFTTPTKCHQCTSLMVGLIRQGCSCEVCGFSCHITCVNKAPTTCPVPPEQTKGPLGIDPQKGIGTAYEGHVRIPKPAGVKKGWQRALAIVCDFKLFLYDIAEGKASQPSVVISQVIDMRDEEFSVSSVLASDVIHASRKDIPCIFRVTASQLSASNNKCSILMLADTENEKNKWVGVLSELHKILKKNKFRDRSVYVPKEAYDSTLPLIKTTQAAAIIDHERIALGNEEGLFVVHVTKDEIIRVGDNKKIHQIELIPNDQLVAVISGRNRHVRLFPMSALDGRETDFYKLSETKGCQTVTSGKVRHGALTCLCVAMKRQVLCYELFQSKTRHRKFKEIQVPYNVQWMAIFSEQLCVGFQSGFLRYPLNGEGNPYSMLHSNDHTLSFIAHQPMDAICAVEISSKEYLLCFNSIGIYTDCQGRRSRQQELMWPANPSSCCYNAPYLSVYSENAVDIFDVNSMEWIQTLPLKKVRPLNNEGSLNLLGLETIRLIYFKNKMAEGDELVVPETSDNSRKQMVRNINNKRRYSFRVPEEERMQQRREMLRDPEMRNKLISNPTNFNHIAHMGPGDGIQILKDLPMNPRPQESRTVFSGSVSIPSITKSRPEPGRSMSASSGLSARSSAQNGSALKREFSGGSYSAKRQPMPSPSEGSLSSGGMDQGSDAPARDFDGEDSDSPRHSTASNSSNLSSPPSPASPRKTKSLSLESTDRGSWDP
High affinity nerve growth factor receptor (Homo sapiens), sequence (P04629 33-796 limits assumed): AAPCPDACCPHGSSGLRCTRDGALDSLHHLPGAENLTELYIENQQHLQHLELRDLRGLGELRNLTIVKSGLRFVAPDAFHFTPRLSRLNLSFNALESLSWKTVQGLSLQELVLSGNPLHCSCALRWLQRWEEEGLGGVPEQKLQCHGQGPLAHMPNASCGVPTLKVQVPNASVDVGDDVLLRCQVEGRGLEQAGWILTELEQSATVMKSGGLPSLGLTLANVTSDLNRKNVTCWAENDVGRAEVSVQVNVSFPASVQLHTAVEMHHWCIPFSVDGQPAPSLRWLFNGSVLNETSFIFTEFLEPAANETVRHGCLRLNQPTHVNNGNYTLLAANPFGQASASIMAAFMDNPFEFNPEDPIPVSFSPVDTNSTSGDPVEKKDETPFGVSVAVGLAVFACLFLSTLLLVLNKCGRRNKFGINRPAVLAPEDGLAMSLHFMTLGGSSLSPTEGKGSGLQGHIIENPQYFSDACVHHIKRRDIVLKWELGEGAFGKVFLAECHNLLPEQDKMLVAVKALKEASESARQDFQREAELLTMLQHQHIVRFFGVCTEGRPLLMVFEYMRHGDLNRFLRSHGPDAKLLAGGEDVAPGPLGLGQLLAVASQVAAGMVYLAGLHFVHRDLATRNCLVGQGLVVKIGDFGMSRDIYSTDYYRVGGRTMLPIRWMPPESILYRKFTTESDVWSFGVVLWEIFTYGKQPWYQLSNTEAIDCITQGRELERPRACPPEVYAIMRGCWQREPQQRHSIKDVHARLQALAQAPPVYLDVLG

Regarding `CN(C)C(=O)Cn1cc(-c2nc(C3(c4ccc(-c5cnc(N)nc5)cc4)CC3)no2)cn1` [BI 0153], the residual activity in test [1] is 72%; in test [3], 100%; in test [5], 100%; in [6], 100%; in test [7], 94%; in [8], 100%. Also, the residual activity in test [9] is 81%; in test [10], 93%; in [11], 72%; in [12] it was 76%; in [13], 71%; in test [14], 67%. In addition, the residual activity in test [15] was 100%; in test [16], 89%; in test [17], 100%. Further, the inhibition in [2] was 9.74%; in test [4] it was 5.35%.
Take `CN(C)C(=O)Cn1cc(-c2nc([C@@](C)(c3ccc(-c4cnc(N)nc4)cc3)C3CC3)no2)cn1` [BI 665915]: the residual activity in [1] is 59%; in [3] it was 0%; in test [5], 93%; in test [6], 70%; in [7] it was 57%; in test [8], 100%. The residual activity in [9] was 100%; in test [10] it was 76%; in [11], 50%; in test [12], 100%; in test [13] it was 83%; in test [14], 78%. In addition, the residual activity in test [15] is 89%; in [16], 89%; in [17] it was 96%. For the same compound, the inhibition in test [2] is 0.496%; in test [4], 6.28%.
